Measurements from ChEMBL document CHEMBL1909046, “DrugMatrix in vitro pharmacology data”.

How the values were obtained:
[1] = target: T1, Neutrophil elastase (Homo sapiens, UniProt P08246); type: tissue-based;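 also: inhibition of neutrophil elastase enzyme activity, measured with a p-nitroanilide-linked peptide substrate; in other assays of this panel Not Active means under 50% inhibition at 10 µM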
T1 sequence (P08246 whole entry): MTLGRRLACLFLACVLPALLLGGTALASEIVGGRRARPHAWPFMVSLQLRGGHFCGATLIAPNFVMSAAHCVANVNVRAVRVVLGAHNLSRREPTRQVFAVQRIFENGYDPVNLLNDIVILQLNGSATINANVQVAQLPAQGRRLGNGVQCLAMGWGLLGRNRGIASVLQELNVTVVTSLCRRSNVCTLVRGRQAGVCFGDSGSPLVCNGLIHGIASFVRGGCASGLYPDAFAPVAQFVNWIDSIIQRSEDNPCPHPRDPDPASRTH

[2] = target: T2, Cathepsin G (Homo sapiens, UniProt P08311); type: tissue-based; settings: neutrophil;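 also: inhibition of Cathepsin G enzyme activity, tested on an AMC-conjugated peptide substrate; in other assays of this panel Not Active means under 50% inhibition at 10 µM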
T2 sequence (P08311 whole entry): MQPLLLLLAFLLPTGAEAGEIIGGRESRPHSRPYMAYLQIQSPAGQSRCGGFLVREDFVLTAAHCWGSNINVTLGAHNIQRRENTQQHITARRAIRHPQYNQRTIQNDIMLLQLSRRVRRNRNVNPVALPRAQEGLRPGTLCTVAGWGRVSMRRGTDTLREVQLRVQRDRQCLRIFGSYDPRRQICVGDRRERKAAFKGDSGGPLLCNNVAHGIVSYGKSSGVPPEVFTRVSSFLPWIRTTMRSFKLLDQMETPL

[3] = target: T3, Leukotriene C4 synthase (Cavia porcellus, UniProt A6XA80); type: tissue-based, Lung;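 also: enzyme inhibition assay of leukotriene C4 synthase, using LTA4 as the substrate; in other assays of this panel Not Active means under 50% inhibition at 10 µM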
T3 sequence (A6XA80 whole entry): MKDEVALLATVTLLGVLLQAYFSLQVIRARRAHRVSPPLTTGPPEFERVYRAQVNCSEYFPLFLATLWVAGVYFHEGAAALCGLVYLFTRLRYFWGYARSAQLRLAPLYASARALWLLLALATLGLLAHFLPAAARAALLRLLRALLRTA

[4] = target: T4, Endothelin-1 receptor (Homo sapiens, UniProt P25101); type: cell membranes, CHO-K1, Membrane; settings: cho-k1; also: in other assays of this panel Not Active means under 50% inhibition at 10 µM
T4 sequence (P25101 whole entry): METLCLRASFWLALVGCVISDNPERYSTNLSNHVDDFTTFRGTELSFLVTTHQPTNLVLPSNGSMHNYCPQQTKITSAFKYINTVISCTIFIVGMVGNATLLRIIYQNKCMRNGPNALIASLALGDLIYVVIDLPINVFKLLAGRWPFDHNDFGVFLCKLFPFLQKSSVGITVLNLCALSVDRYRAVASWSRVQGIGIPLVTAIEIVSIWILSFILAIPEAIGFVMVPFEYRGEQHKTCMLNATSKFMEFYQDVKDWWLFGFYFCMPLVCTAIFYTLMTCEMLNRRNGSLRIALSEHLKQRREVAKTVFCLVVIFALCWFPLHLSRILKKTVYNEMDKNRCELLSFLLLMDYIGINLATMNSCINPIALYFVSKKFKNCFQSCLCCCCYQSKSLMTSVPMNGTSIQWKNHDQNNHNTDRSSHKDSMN

[5] = target: Melanocortin receptor 4 (Homo sapiens, UniProt P32245); type: cell membranes, Membrane; settings: hek293; also: in other assays of this panel Not Active means under 50% inhibition at 10 µM
[6] = DRUGMATRIX: Glutamate, Kainate radioligand binding (ligand: [3H] Kainic acid); type: cell membranes, Rattus norvegicus, Wistar, Brain, Membrane; settings: Not Active = under 50% inhibition at 10 µM
[7] = target: Tyrosine-protein kinase Fyn (Homo sapiens, UniProt P06241); test: biochemical; type: cell-based, Insect cells
[8] = target: Nitric oxide synthase 1 (Rattus norvegicus, UniProt P29476); type: tissue-based, Cerebellum; also: in other assays of this panel Not Active means under 50% inhibition at 10 µM
Nitric oxide synthase 1, sequence (P29476 whole entry): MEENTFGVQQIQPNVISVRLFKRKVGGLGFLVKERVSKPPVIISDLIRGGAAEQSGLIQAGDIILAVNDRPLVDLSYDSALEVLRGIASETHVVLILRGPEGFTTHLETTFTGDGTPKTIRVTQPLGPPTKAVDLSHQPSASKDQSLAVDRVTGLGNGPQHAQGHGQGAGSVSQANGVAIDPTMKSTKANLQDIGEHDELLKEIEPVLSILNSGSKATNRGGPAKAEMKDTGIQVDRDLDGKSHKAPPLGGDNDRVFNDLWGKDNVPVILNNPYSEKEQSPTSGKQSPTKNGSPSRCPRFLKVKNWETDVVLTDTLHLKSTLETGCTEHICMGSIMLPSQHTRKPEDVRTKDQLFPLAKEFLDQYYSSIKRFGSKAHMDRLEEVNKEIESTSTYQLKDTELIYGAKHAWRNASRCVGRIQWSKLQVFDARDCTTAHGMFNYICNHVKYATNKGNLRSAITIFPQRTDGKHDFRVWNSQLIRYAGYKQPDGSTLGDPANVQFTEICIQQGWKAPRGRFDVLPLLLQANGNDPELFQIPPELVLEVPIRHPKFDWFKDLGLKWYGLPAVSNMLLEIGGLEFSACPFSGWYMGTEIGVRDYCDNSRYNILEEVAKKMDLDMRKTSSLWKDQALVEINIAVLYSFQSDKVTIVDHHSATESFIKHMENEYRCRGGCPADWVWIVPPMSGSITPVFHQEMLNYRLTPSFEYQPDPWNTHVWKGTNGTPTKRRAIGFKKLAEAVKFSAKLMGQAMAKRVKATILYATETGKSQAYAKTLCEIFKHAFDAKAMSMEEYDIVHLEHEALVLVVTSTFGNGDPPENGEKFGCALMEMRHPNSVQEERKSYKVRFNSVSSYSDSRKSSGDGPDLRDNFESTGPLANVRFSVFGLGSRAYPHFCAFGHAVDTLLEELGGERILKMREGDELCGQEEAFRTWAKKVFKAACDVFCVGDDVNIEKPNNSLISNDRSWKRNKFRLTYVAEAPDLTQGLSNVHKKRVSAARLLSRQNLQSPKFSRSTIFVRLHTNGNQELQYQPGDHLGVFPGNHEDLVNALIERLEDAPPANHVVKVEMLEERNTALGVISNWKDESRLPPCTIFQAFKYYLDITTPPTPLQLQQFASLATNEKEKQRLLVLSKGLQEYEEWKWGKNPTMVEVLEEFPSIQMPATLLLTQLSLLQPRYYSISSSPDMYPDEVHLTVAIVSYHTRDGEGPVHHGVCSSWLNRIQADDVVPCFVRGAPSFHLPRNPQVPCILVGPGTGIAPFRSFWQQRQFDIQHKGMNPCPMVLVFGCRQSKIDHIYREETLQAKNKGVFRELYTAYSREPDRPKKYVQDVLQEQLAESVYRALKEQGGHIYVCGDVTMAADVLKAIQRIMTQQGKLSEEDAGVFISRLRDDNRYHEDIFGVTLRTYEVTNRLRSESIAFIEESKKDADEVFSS

Tyrosine-protein kinase Fyn, sequence (P06241 whole entry): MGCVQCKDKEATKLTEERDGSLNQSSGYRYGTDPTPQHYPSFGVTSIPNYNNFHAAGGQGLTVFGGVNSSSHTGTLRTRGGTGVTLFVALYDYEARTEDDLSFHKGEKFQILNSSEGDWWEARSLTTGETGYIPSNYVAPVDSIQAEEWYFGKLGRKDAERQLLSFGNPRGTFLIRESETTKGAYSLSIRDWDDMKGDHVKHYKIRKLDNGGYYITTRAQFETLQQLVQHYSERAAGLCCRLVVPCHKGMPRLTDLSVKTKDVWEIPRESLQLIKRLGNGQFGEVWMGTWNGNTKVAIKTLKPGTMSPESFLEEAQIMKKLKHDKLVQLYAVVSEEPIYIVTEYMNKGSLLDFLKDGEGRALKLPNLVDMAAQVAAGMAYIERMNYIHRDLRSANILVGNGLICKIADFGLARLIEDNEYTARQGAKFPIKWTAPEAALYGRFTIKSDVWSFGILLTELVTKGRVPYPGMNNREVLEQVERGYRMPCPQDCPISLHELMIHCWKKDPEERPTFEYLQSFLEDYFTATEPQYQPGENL
Melanocortin receptor 4, sequence (P32245 whole entry): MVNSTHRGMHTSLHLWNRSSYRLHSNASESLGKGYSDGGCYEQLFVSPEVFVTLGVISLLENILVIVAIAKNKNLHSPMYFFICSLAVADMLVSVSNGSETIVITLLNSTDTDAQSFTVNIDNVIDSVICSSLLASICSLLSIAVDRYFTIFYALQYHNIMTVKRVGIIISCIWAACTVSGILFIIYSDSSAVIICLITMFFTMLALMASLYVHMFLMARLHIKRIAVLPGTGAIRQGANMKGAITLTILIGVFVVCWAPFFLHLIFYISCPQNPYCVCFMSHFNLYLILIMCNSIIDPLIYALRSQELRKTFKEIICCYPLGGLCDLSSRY

SMILES | IC50 [1] | IC50 [2] | IC50 [3] | IC50 [4] | IC50 [5] | IC50 [6] | Ki [6] | IC50 ([7]; read-out: IC50) | IC50 [8] | IC50 ([7]; insect cells)
Oc1ccccc1O [CATECHOL] | Not Active | Not Active | Not Active | Not Active | Not Active | Not Active | Not Active | 17.4 µM | Not Active | –
C[C@]12CCC(=O)C=C1CC[C@@H]1[C@@H]2[C@@H](O)C[C@@]2(C)[C@H]1CC[C@]2(O)C(=O)CO [HYDROCORTISONE] | Not Active | Not Active | Not Active | Not Active | Not Active | Not Active | Not Active | – | Not Active | Not Active
Cc1cccc(Nc2ccccc2C(=O)O)c1C [MEFENAMIC ACID] | Not Active | Not Active | Not Active | Not Active | Not Active | Not Active | Not Active | – | Not Active | Not Active
Cc1c(N(C)CS(=O)(=O)[O-])c(=O)n(-c2ccccc2)n1C.[Na+] [DIPYRONE SODIUM] | Not Active | Not Active | Not Active | Not Active | Not Active | Not Active | Not Active | – | Not Active | Not Active
C#C[C@]1(O)CC[C@H]2[C@@H]3CCC4=Cc5oncc5C[C@]4(C)[C@H]3CC[C@@]21C [DANAZOL] | Not Active | Not Active | Not Active | Not Active | Not Active | Not Active | Not Active | – | Not Active | Not Active
CN1C(=O)CN=C(c2ccccc2)c2cc(Cl)ccc21 [DIAZEPAM] | Not Active | Not Active | Not Active | Not Active | Not Active | Not Active | Not Active | – | Not Active | Not Active
C[C@@H]1CC[C@H]2[C@@H](C)C(=O)O[C@@H]3O[C@@]4(C)CC[C@@H]1[C@]32OO4 [ARTEMISININ] | Not Active | Not Active | Not Active | Not Active | Not Active | Not Active | Not Active | – | Not Active | Not Active
C=C1/C(=C\C=C2/CCC[C@]3(C)[C@@H]([C@H](C)CCCC(C)C)CC[C@@H]23)C[C@@H](O)C[C@@H]1O [ALFACALCIDOL] | Not Active | Not Active | Not Active | Not Active | Not Active | Not Active | Not Active | – | Not Active | Not Active
COc1ccccc1OCC(O)CO (stereo not given) [GUAIFENESIN] | Not Active | Not Active | Not Active | Not Active | Not Active | Not Active | Not Active | – | Not Active | Not Active
[N-]=[N+]=CC(=O)OC[C@H](N)C(=O)O [AZASERINE] | Not Active | Not Active | Not Active | Not Active | Not Active | Not Active | Not Active | – | Not Active | Not Active
N[C@@H](Cc1ccc(F)cc1)C(=O)O | Not Active | Not Active | Not Active | Not Active | Not Active | Not Active | Not Active | – | Not Active | Not Active
O=C(/C=C/c1ccc(O)c(O)c1)OCCc1ccccc1 [CAFFEIC ACID PHENETHYL ESTER] | Not Active | Not Active | Not Active | Not Active | Not Active | Not Active | Not Active | 4.21 µM | Not Active | –
Nc1nc(N)nc(NC2CC2)n1 [CYROMAZINE] | Not Active | Not Active | Not Active | Not Active | Not Active | Not Active | Not Active | – | Not Active | Not Active
C#C[C@]1(O)CC[C@H]2[C@@H]3CCc4cc(O)ccc4[C@H]3CC[C@@]21C [ETHINYL ESTRADIOL] | Not Active | Not Active | Not Active | Not Active | Not Active | Not Active | Not Active | – | Not Active | Not Active
Nc1nc(Cl)nc2c1ncn2[C@H]1C[C@H](O)[C@@H](CO)O1 [CLADRIBINE] | Not Active | Not Active | Not Active | Not Active | Not Active | Not Active | Not Active | – | Not Active | Not Active
CC(C)(Sc1cc(C(C)(C)C)c(O)c(C(C)(C)C)c1)Sc1cc(C(C)(C)C)c(O)c(C(C)(C)C)c1 [PROBUCOL] | Not Active | Not Active | Not Active | Not Active | Not Active | Not Active | Not Active | – | Not Active | Not Active
O=C(O)c1cccnc1 [NIACIN] | Not Active | Not Active | Not Active | Not Active | Not Active | Not Active | Not Active | – | Not Active | Not Active
CN(C(=O)CCCOc1ccc2[nH]c(=O)ccc2c1)C1CCCCC1 [CILOSTAMIDE] | Not Active | Not Active | Not Active | Not Active | Not Active | Not Active | Not Active | – | Not Active | Not Active
CCOC(=O)[C@H](CCc1ccccc1)N[C@@H](C)C(=O)N1CCC[C@H]1C(=O)O | Not Active | Not Active | Not Active | Not Active | Not Active | Not Active | Not Active | – | Not Active | Not Active
CC[C@]1(O)CC[C@H]2[C@@H]3CCC4=CCCC[C@@H]4[C@H]3CC[C@@]21C | Not Active | Not Active | Not Active | Not Active | Not Active | Not Active | Not Active | – | Not Active | Not Active
CNC(=C[N+](=O)[O-])NCCSCc1csc(CN(C)C)n1 [NIZATIDINE] | Not Active | Not Active | Not Active | Not Active | Not Active | Not Active | Not Active | – | Not Active | Not Active
CC(C)C[C@H]1C(=O)N2CCC[C@H]2[C@]2(O)O[C@](NC(=O)[C@@H]3C=C4c5cccc6[nH]c(Br)c(c56)C[C@H]4N(C)C3)(C(C)C)C(=O)N12 [BROMOCRIPTINE] | Not Active | Not Active | Not Active | Not Active | Not Active | Not Active | Not Active | – | Not Active | Not Active
COc1ccc2cc(CCC(C)=O)ccc2c1 [NABUMETONE] | Not Active | Not Active | Not Active | Not Active | Not Active | Not Active | Not Active | – | Not Active | Not Active
COc1ccc(Cc2nccc3cc(OC)c(OC)cc23)cc1OC [PAPAVERINE] | Not Active | Not Active | Not Active | Not Active | Not Active | Not Active | Not Active | – | Not Active | Not Active
CC(=O)O[C@]1(C(C)=O)CC[C@H]2[C@@H]3C=C(Cl)C4=CC(=O)[C@@H]5C[C@@H]5[C@]4(C)[C@H]3CC[C@@]21C [CYPROTERONE ACETATE] | Not Active | Not Active | Not Active | Not Active | Not Active | Not Active | Not Active | – | Not Active | Not Active
